We go through two compounds from patent US20100298256A1, “ANTIVIRAL COMPOUNDS” (priority 2007, published 2010).

Data set [1] is described as follows: CytoTox-ONE LDH release cytotoxicity assay, PBMC. The format is cell-based. The settings on record: PBMC cells, read-out: TC50 (toxic concentration decreasing cell viability by 50%). On the procedure: (§1) CytoTox-ONE™ homogeneous membrane integrity assay kits (Promega) was used in the cytotoxicity studies. The assay measured the release of lactate dehyrodegenase (LDH) from cells with damaged membranes in a fluorometric, homogeneous format. […] The amount of fluorescence produced is proportional to the number of lysed cells. The cytotoxicity assessment assay was performed using a designed plate format […] for allocation of media, drug, cells, and virus in a 96 well plate. Six serially diluted concentrations of octadecyl-ethanediol-modified (ODE) phosphodiester Ribavirin prodrug was applied to the cells to derive the TC50 (toxic concentration of the drug decreasing the cell viability by 50%), TC90 (toxic concentration of the drug decreasing the cell viability by 90%) and TC95 (toxic concentration of the drug decreasing the cell viability by 95%) values.

Another data set concerns PBMC cells. Description: CytoTox-ONE LDH release cytotoxicity assay, PBMC. The data set is classed as cell-based. On the procedure: as §1
The test system of a further data set is HepG2 cells. Description: CytoTox-ONE LDH release cytotoxicity assay, HepG2. The format is cell-based. On the procedure: as §1
A general note: LDH in the medium is a marker of cell lysis.

A short description of data set [2]: CytoTox-ONE LDH release cytotoxicity assay, HepG2. The data set is classed as cell-based. As to conditions: human, HepG2 cells, read-out: TC50 (toxic concentration decreasing cell viability by 50%). On the procedure:
as §1

In data set [3] the test system is influenza A.
Data set [4] concerns HCV replicon AVA5 (genotype 1b, subgenomic replicon). In words: HCV replication in cell culture, AVA5 replicon line (blot hybridization of HCV RNA). The data set is classed as cell-based. As to conditions: AVA5 cultures, daily treatment for three days, normalized to β-actin RNA. The protocol:
(§2) Antiviral activity of the test compounds was assessed (Okuse et al., 2005, Antivir. Res. 65:23) in the stably HCV replicating line, AVA5 (genotype 1b, subgenomic, replicon, Blight et al., 2000, Sci. 290: 1972) and APC 103 ((genotype 1a, genomic replicon). (ODE) phosphodiester ribavirin prodrug were added to dividing cultures daily for three days. Cultures generally start the assay at 30-50% confluence and reach confluence during the last day of treatment. Intracellular HCV RNA levels and cytotoxicity (on 96 well plates) were used. A total of 12 untreated control cultures and triplicate cultures treated with α-interferon and 2′CmeC served as assay controls.
(§3) Triplicate cultures for HCV RNA levels were measured using a conventional blot hybridization method in which HCV RNA levels were normalized to the levels of β-actin RNA in each individual culture (Okuse et al., 2005, Antivir. Res. 65:23). Cytotoxicity was measured using an established neutral red dye uptake assay (Korba et al., 1992, Antivir. Res. 19:55, Okuse et al., Antivir. Res. 65:23). Test compounds were received as powders on dry ice and were dissolved in 100% tissue culture grade DMSO (Sigma, Inc.) at 10 mM. Aliquots of test compounds sufficient for one daily treatment were made in individual tubes and all material was stored at −20° C. […]
Background: Replicon systems follow genome replication, usually without infectious particles.

Data set [5] relates to HCV replicon APC103 (genotype 1a, genomic replicon). Description: HCV replication in cell culture, APC103 replicon line (blot hybridization of HCV RNA). The data set is classed as cell-based. The settings on record: APC103 cultures, daily treatment for three days, normalized to β-actin RNA. On the procedure: as §2, §3
A short description of a further data set: in vivo. The settings on record: male, CD-1, mouse, plasma.
A short description of data set [6]: Pharmacokinetic study after single oral and intravenous administration in male CD-1 mice.
Experimental: (§4) Plasma samples were collected at pre-dose, 1, 3, 6, 12, 24, 48, and 72 hours post-dose for P.O. treatment group and at pre-dose, 0.25, 2, 6, 12, 24, 48, and 72 hours post-dose for I.V. treatment group. All samples were collected within ±2 minutes of the targeted time.
(§5) Phenolphthalein was used as an internal standard. […] The samples were mixed by vortexing for 5 minutes, and centrifuged at 15,000 rpm at 4° C. for 10 minutes. A 150-μL aliquot of the supernatant was transferred to a 96-well plate and 10 uL of supernatant sample was injected into the LC-MS/MS system for analysis. In each analytical batch, PK samples were run concurrently with calibration standards (blank, 0, 5, 10, 25, 50, 100, 150, 300, and 500 ng/mL), and low, mid, high, and 10-fold dilution QC samples (15, 250, 400, and 2000 ng/m L).
A 1/Y^2 weighting factor was used.
Data set [7] concerns influenza A. In words: microbe, parasite or virus in culture. As to conditions: MDCK, read-out: IC50 (minimum inhibitory drug concentration which reduces the CPE by 50%).
For the next data set, the system named is AVA5 and APC103 cultures. In words: Cytotoxicity by neutral red dye uptake in the HCV replicon cultures. The format is cell-based. As to conditions: at the concentrations used for the antiviral analyses. On the procedure:
as §2, §3

A further data set is described as follows: in vitro. As to conditions: dog.
The test system of the next data set is CEM cells. Description: CytoTox-ONE LDH release cytotoxicity assay, CEM. The data set is classed as cell-based. The protocol: as §1
The nature of data set [8]: CytoTox-ONE LDH release cytotoxicity assay, CEM. The data set is classed as cell-based. The settings on record: human, CEM cells, read-out: TC50 (toxic concentration decreasing cell viability by 50%). On the procedure:
as §1

Experimental for in vivo: as §4, §5
A 1/Y^2 weighting factor was used.

Take `CCCCCCCCCCCCCCCCCCOCCOP(=O)(O)OC[C@H]1O[C@@H](n2cnc(C(N)=O)n2)[C@H](O)[C@@H]1O` [(ODE) phosphodiester ribavirin prodrug, 1-(5-O-{hydroxy[2-(octadecyloxy)ethoxy]phosphoryl}-beta-D-ribofuranosyl)-1H-1,2,4-triazole-3-carboxamide]: the CC50 in data set [1] came to 111 µM; in data set [2], 13.2 µM; in “in vitro”, 66.4 µM; in data set [8] it was 14.1 µM. The “TC90 (toxic concentration decreasing cell viability by 90%)” value came out at 245 µM in the data set with PBMC cells, 28.32 µM with HepG2 cells and 63.41 µM in the data set with CEM cells. For the same compound, the “TC95 (toxic concentration decreasing cell viability by 95%)” value in the data set with PBMC cells was determined as 272 µM; with HepG2 cells it was 41.69 µM; in the data set on CEM cells, 84.55 µM. For the same compound, in the data set on influenza A [3], the “therapeutic index (TI50 = TC50 / IC50)” value was “greater than 210”. For the same compound, the “intracellular HCV RNA levels” value in data set [4] and in data set [5] was “selective reductions in intracellular HCV RNA levels” each time. The AUC(0-inf) in the data set “in vivo” (iv, 5 mg/kg) came to 2660 ng·h/mL; in the data set “in vivo” (po, 30 mg/kg), 1700 ng·h/mL. Also, the AUC(0-t) in the data set “in vivo” (iv, 5 mg/kg) turned out to be 2640 ng·h/mL; in the data set “in vivo” (po, 30 mg/kg) it was 1660 ng·h/mL. Besides, the Cmax in the data set “in vivo” (iv, 5 mg/kg) amounted to 1960 ng/mL; in “in vivo” (po, 30 mg/kg), 407 ng/mL. Moreover, the time of peak concentration (Tmax) in “in vivo” (iv, 5 mg/kg) stood at 0.25 h; in the data set “in vivo” (po, 30 mg/kg), 3 h. In addition, the clearance in the data set “in vivo” (iv, 5 mg/kg) was 31.3 mL/min/kg. The same compound showed a half-life in “in vivo” (iv, 5 mg/kg) of 1.13 h. Further, the bioavailability in the data set “in vivo” (oral, 30 mg/kg) was determined as 10.7%. Besides, the “plasma levels (below LLOQ)” value is under 5 ng/mL in data set [6] (IV 5 mg/kg, from 12 hours to 72 hours post-dose) and under 5 ng/mL in data set [6] (PO 30 mg/kg, from 24 hours to 72 hours post-dose). Moreover, the IC50 in the data set on influenza A [7] was under 0.316 µM. The “toxicity (significant = greater than 50% depression of the dye uptake levels observed in untreated cells)” value with AVA5 and APC103 cultures is given as “No significant toxicity”.

For `NC(=O)c1ncn([C@@H]2O[C@H](CO)[C@@H](O)[C@H]2O)n1` [ribavirin, reference compound], the “toxicity (significant = greater than 50% depression of the dye uptake levels observed in untreated cells)” value in the data set on AVA5 and APC103 cultures is given as “Significant toxicity”.

In general, AUC(0-inf) refers to total exposure, with the tail of the curve extrapolated. Low values mean less exposure, high ones more exposure. As usually defined, the AUC(0-t) is the area under the concentration-time curve up to a stated or last time point. A high value points to more exposure. Usually Cmax stands for the highest concentration seen after dosing. For orientation: Tmax means the time at which the peak concentration occurs. What is called clearance is the rate of elimination divided by the concentration. Lower therefore signals a low capacity for elimination. For orientation: half-life means the time needed for the level to fall by half in the phase considered. Read a high half-life as slow loss. As usually defined, the bioavailability is dose-corrected exposure relative to a reference, in per cent. A high value points to good availability.
